Experimental data published in ChEMBL document CHEMBL4732099, “ROS-responsive and multifunctional anti-Alzheimer prodrugs: Tacrine-ibuprofen hybrids via a phenyl boronate linker” (Eur J Med Chem, 2021).
The source made the active and inactive calls. The calls are words filed in the database; no cut-off is given here.

Assays:
Acetylcholinesterase = Acetylcholinesterase (Electrophorus electricus, UniProt O42275); experiment: Inhibition of electric eel AChE using acetylthiocholine iodide as substrate preincubated for 5 mins followed by substrate addition and measured after 1 min in presence of H2O2 by Ellman's method
Chain of Acetylcholinesterase (O42275 whole entry): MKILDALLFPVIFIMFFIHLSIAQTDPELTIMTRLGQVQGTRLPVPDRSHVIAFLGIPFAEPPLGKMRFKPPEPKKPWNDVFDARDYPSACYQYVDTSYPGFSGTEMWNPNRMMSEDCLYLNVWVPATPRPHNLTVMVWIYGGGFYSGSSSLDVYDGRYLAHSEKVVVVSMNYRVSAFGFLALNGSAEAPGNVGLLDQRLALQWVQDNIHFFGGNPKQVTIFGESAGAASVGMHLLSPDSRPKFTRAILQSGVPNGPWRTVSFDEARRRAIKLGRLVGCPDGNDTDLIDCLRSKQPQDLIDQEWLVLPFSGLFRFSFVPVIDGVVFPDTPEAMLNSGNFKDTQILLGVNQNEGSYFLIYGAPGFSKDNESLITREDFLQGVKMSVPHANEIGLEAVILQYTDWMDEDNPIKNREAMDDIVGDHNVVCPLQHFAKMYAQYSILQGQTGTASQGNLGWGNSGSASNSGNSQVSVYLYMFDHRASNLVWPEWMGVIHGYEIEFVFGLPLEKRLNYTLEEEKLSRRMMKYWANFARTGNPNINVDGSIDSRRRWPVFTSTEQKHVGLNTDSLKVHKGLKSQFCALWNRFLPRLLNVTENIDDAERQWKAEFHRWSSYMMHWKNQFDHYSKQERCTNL

SH-SY5Y [1] = experiment: Neuroprotective activity against H2O2-induced apoptosis in human SH-SY5Y cells assessed as reduction in cells with red fluorescence at 10 uM preincubated for 6 hrs followed by H2O2 addition and measured after 24 hrs by calcein AM/propidium iodide staining based laser confocal microscope; format: functional, cell-based; conditions: time 30.0 hrs
Rattus norvegicus [2] = experiment: Cognitive enhancing effect in Sprague-Dawley rat model of amyloid beta (25 to 35) peptide-induced memory impairment assessed as time spent in target platform at 0.9 mg per 100 g, […] qd for 4 weeks administered via gavage and measured after 5 days by Morris water maze test (reference value: 0.5 sec); format: functional; conditions: time 33 day
SH-SY5Y [3] = experiment: Neuroprotective activity against H2O2-induced apoptosis in human SH-SY5Y cells assessed as necrotic cells at 10 uM preincubated for 6 hrs followed by H2O2 addition and measured after 24 hrs by annexin V FITC/propidium iodide staining based flow cytometry (reference value: 44.3%); format: functional; conditions: time 30 hrs
[4] = biological target: Acetylcholinesterase (Electrophorus electricus) (UniProt O42275); experiment: Inhibition of electric eel AChE at 10 uM using acetylthiocholine iodide as substrate preincubated for 5 mins followed by substrate addition and measured after 1 min by Ellman's method relative to control; conditions: time 6.0 min
Chain of Acetylcholinesterase (Electrophorus electricus) (O42275 24-633 limits assumed): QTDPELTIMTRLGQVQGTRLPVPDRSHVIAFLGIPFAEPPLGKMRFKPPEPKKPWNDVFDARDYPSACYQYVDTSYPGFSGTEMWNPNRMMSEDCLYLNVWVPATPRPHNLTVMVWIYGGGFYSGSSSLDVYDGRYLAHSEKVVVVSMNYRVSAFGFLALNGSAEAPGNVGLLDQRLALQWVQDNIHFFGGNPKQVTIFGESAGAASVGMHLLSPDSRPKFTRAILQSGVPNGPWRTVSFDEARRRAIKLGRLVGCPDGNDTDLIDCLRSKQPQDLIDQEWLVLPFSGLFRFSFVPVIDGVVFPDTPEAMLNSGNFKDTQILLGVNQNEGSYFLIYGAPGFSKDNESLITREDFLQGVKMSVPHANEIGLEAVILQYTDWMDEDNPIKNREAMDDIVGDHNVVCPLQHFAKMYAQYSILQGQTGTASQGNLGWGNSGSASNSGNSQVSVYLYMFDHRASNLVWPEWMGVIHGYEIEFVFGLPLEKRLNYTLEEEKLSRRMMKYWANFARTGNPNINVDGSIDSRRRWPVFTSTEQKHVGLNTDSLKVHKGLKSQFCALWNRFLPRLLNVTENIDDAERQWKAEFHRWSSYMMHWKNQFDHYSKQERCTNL

BV-2 [5] = experiment: Antiinflammatory activity in mouse BV-2 cells assessed as reduction in LPS-induced TNFalpha mRNA expression preincubated for 6 hrs followed by LPS stimulation and measured after 24 hrs RT-qPCR analysis; format: functional, cell-based; conditions: dose 5-10 µM, time 30.0 hrs
SH-SY5Y [6] = experiment: Induction of apoptosis in human SH-SY5Y cells assessed as early apoptotic cells at 10 uM incubated for 24 hrs by annexin V FITC/propidium iodide staining based flow cytometry (reference value: […]); format: cell-based
Rattus norvegicus [7] = experiment: Cognitive enhancing effect in Sprague-Dawley rat model of amyloid beta (25 to 35) peptide-induced memory impairment assessed as number of platform crossing at 0.9 mg per 100 g, […] qd for 4 weeks administered via gavage and measured after 5 days by Morris water maze test (reference value: 0.4); format: functional; conditions: time 33 day
[8] = Prodrug activation assessed as hydrolysis of benzyl ester bonds in presence of H2O2 by 1H-NMR analysis
BV-2 [9] = experiment: Antiinflammatory activity in mouse BV-2 cells assessed as fold change in LPS-induced TNFalpha mRNA expression at 10 uM preincubated for 6 hrs followed by LPS stimulation and measured after 24 hrs RT-qPCR analysis (reference value: 3.86 +/- 0.25); format: functional; conditions: time 30 hrs
SH-SY5Y [10] = experiment: Neuroprotective activity against H2O2-induced apoptosis in human SH-SY5Y cells assessed as reduction in Bax expression preincubated for 6 hrs followed by H2O2 addition and measured after 24 hrs by Western blot analysis; format: functional, cell-based; conditions: dose 5-10 µM, time 30.0 hrs
SH-SY5Y [11] = experiment: Neuroprotective activity against H2O2-induced apoptosis in human SH-SY5Y cells assessed as early apoptotic cells at 10 uM preincubated for 6 hrs followed by H2O2 addition and measured after 24 hrs by annexin V FITC/propidium iodide staining based flow cytometry (reference value: 0.9%); format: functional; conditions: time 30 hrs
HepG2 = experiment: Hepatotoxicity in human HepG2 cells assessed as increase in ROS accumulation by measuring increase in green fluorescence at 25 to 50 uM measured after 24 hrs by ROS tracker based laser confocal microscopic analysis; format: toxicity, cell-based; conditions: hepg2, 24 h, dose 25-50 µM
SH-SY5Y [12] = experiment: Neuroprotective activity against H2O2-induced apoptosis in human SH-SY5Y cells assessed as early apoptotic cells at 5 uM preincubated for 6 hrs followed by H2O2 addition and measured after 24 hrs by annexin V FITC/propidium iodide staining based flow cytometry (reference value: 0.9%); format: functional; conditions: time 30 hrs
in vitro = conditions: human, SH-SY5Y cells
BV-2 [13] = experiment: Antiinflammatory activity in mouse BV-2 cells assessed as fold change in LPS-induced IL1beta mRNA expression at 5 uM preincubated for 6 hrs followed by LPS stimulation and measured after 24 hrs RT-qPCR analysis (reference value: 3.68 +/- 0.02); format: functional; conditions: time 30 hrs
BV-2 [14] = experiment: Antiinflammatory activity in mouse BV-2 cells assessed as fold change in LPS-induced TNFalpha mRNA expression at 5 uM preincubated for 6 hrs followed by LPS stimulation and measured after 24 hrs RT-qPCR analysis (reference value: 3.86 +/- 0.25); format: functional; conditions: time 30 hrs
SH-SY5Y [15] = experiment: Neuroprotective activity against H2O2-induced apoptosis in human SH-SY5Y cells assessed as increase in viable cells preincubated for 6 hrs followed by H2O2 addition and measured after 24 hrs by annexin V FITC/propidium iodide staining based flow cytometry; format: functional, cell-based; conditions: dose 5-10 µM, time 30.0 hrs
SH-SY5Y [16] = experiment: Neuroprotective activity against H2O2-induced apoptosis in human SH-SY5Y cells assessed as late apoptotic cells at 5 uM preincubated for 6 hrs followed by H2O2 addition and measured after 24 hrs by annexin V FITC/propidium iodide staining based flow cytometry (reference value: 13.1%); format: functional; conditions: time 30 hrs
BV-2 [17] = experiment: Antiinflammatory activity in mouse BV-2 cells assessed as reduction in LPS-induced ROS level at 10 uM preincubated for 6 hrs followed by LPS stimulation and measured after 18 hrs by DCFH-DA staining based laser confocal microscopic analysis; format: functional, cell-based
SH-SY5Y [18] = experiment: Neuroprotective activity against H2O2-induced apoptosis in human SH-SY5Y cells assessed as reduction in cleaved caspase-3 expression preincubated for 6 hrs followed by H2O2 addition and measured after 24 hrs by Western blot analysis; format: functional, cell-based; conditions: dose 5-10 µM, time 30.0 hrs
SH-SY5Y [19] = experiment: Cytotoxicity against human SH-SY5Y cells assessed as reduction in cell viability at 31.25 uM measured after 72 hrs by MTT assay; format: cell-based
Rattus norvegicus [20] = experiment: Cognitive enhancing effect in Sprague-Dawley rat model of amyloid beta (25 to 35) peptide-induced memory impairment assessed as reduction in escape latency time at 0.9 mg per 100 g, […] qd for 4 weeks administered via gavage and measured after 4 to 5 days by Morris water maze test; format: functional, organism-based; conditions: time 32-33 day
SH-SY5Y [21] = experiment: Neuroprotective activity against H2O2-induced apoptosis in human SH-SY5Y cells assessed as viable cells at 5 uM preincubated for 6 hrs followed by H2O2 addition and measured after 24 hrs by annexin V FITC/propidium iodide staining based flow cytometry (reference value: 41.7%); format: functional; conditions: time 30 hrs, read-out: Activity
SH-SY5Y [22] = experiment: Neuroprotective activity against H2O2-induced apoptosis in human SH-SY5Y cells assessed as necrotic cells at 5 uM preincubated for 6 hrs followed by H2O2 addition and measured after 24 hrs by annexin V FITC/propidium iodide staining based flow cytometry (reference value: 44.3%); format: functional; conditions: time 30 hrs
SH-SY5Y [23] = experiment: Neuroprotective activity against H2O2-induced cytotoxicity in human SH-SY5Y cells assessed as cell viability at 20 uM preincubated for 6 hrs followed by H2O2 addition and measured after 24 hrs by MTT assay (reference value: 20%); format: functional; conditions: time 30 hrs, read-out: Activity
SH-SY5Y [24] = experiment: Induction of apoptosis in human SH-SY5Y cells assessed as late apoptotic cells at 10 uM incubated for 24 hrs by annexin V FITC/propidium iodide staining based flow cytometry (reference value: […]); format: cell-based
BV-2 [25] = experiment: Antiinflammatory activity in mouse BV-2 cells assessed as reduction in LPS-induced IL1beta mRNA expression preincubated for 6 hrs followed by LPS stimulation and measured after 24 hrs RT-qPCR analysis; format: functional, cell-based; conditions: dose 5-10 µM, time 30.0 hrs
BV-2 [26] = experiment: Antiinflammatory activity in mouse BV-2 cells assessed as fold change in LPS-induced IL1beta mRNA expression at 10 uM preincubated for 6 hrs followed by LPS stimulation and measured after 24 hrs RT-qPCR analysis (reference value: 3.68 +/- 0.02); format: functional; conditions: time 30 hrs
SH-SY5Y [27] = experiment: Neuroprotective activity against H2O2-induced apoptosis in human SH-SY5Y cells assessed as increase in Bcl-2 expression preincubated for 6 hrs followed by H2O2 addition and measured after 24 hrs by Western blot analysis; format: functional, cell-based; conditions: dose 5-10 µM, time 30.0 hrs
SH-SY5Y [28] = experiment: Neuroprotective activity against H2O2-induced cytotoxicity in human SH-SY5Y cells assessed as cell viability at 5 uM preincubated for 6 hrs followed by H2O2 addition and measured after 24 hrs by MTT assay (reference value: 20%); format: functional; conditions: time 30 hrs, read-out: Activity
SH-SY5Y [29] = experiment: Induction of apoptosis in human SH-SY5Y cells assessed as necrotic cells at 10 uM incubated for 24 hrs by annexin V FITC/propidium iodide staining based flow cytometry (reference value: 0.8 %); format: cell-based
SH-SY5Y [30] = experiment: Neuroprotective activity against H2O2-induced apoptosis in human SH-SY5Y cells assessed as late apoptotic cells at 10 uM preincubated for 6 hrs followed by H2O2 addition and measured after 24 hrs by annexin V FITC/propidium iodide staining based flow cytometry (reference value: 13.1%); format: functional; conditions: time 30 hrs
SH-SY5Y [31] = experiment: Neuroprotective activity against H2O2-induced apoptosis in human SH-SY5Y cells assessed as viable cells at 10 uM preincubated for 6 hrs followed by H2O2 addition and measured after 24 hrs by annexin V FITC/propidium iodide staining based flow cytometry (reference value: 41.7%); format: functional; conditions: time 30 hrs, read-out: Activity
SH-SY5Y [32] = experiment: Cytotoxicity against human SH-SY5Y cells assessed as reduction in cell viability at 7.81 to 15.62 uM measured after 72 hrs by MTT assay; format: cell-based; conditions: dose 7.81-15.62 µM
SH-SY5Y [33] = experiment: Neuroprotective activity against H2O2-induced apoptosis in human SH-SY5Y cells assessed as reduction in Bax expression at 10 uM preincubated for 6 hrs followed by H2O2 addition and measured after 24 hrs by Western blot analysis; format: functional, cell-based; conditions: time 30.0 hrs
SH-SY5Y [34] = experiment: Neuroprotective activity against H2O2-induced apoptosis in human SH-SY5Y cells assessed as reduction in cleaved caspase-3 expression at 10 uM preincubated for 6 hrs followed by H2O2 addition and measured after 24 hrs by Western blot analysis; format: functional, cell-based; conditions: time 30.0 hrs
SH-SY5Y [35] = experiment: Neuroprotective activity against H2O2-induced apoptosis in human SH-SY5Y cells assessed as increase in Bcl-2 expression at 10 uM preincubated for 6 hrs followed by H2O2 addition and measured after 24 hrs by Western blot analysis; format: functional, cell-based; conditions: time 30.0 hrs
[36] = Drug uptake in mouse BV-2 cells at 10 uM measured after 12 hrs by laser scanning confocal microscopic analysis; format: ADME, cell-based; conditions: bv-2, 12 h
[37] = Drug uptake in human SH-SY5Y cells at 10 uM measured after 12 hrs by laser scanning confocal microscopic analysis; format: ADME, cell-based
SH-SY5Y [38] = experiment: Cytotoxicity against human SH-SY5Y cells assessed as reduction in cell viability at 7.81 to 31.25 uM measured after 72 hrs by MTT assay; format: cell-based; conditions: dose 7.81-31.25 µM

Cc1cc(COC(=O)NCCCCCCNc2c3c(nc4ccccc24)CCCC3)c(OCc2ccc(B3OC(C)(C)C(C)(C)O3)cc2)c(COC(=O)C(C)c2ccc(CC(C)C)cc2)c1 (stereo not given)
IC50 (Acetylcholinesterase): 39.2 nM
Activity (SH-SY5Y [1]): Active
Time (Rattus norvegicus [2]): 2.2 s
Activity (SH-SY5Y [3]): 7.3%
inhibition [4]: 47.2%
Activity (BV-2 [5]): Dose-dependent effect
Activity (SH-SY5Y [6]): 1.65%
Activity (Rattus norvegicus [7]): 4.2
Drug metabolism [8]: Metabolite_Detected
fold change (FC) (BV-2 [9]): 1.2
Activity (SH-SY5Y [10]): Dose-dependent effect
Activity (SH-SY5Y [11]): 1.17%
Activity (HepG2): Toxic
Activity (SH-SY5Y [12]): 1.75%
viability at 24 h, 5 µM (in vitro): 90.4%
fold change (FC) (BV-2 [13]): 1.36
fold change (FC) (BV-2 [14]): 1.6
Activity (SH-SY5Y [15]): Dose-dependent effect
Activity (SH-SY5Y [16]): 10.5%
Activity (BV-2 [17]): Active
Activity (SH-SY5Y [18]): Dose-dependent effect
Activity (SH-SY5Y [19]): Non-Toxic
Activity (Rattus norvegicus [20]): Active
viability at 5 µM (SH-SY5Y [21]): 73.7%
Activity (SH-SY5Y [22]): 14.1%
viability at 20 µM (SH-SY5Y [23]): > 80%
Activity (SH-SY5Y [24]): 2.57%
Activity (BV-2 [25]): Dose-dependent effect
fold change (FC) (BV-2 [26]): 0.86
Activity (SH-SY5Y [27]): Dose-dependent effect
viability at 5 µM (SH-SY5Y [28]): > 50%
Activity (SH-SY5Y [29]): 2.48%
Activity (SH-SY5Y [30]): 4.97%
viability at 10 µM (SH-SY5Y [31]): 86.6%

Cc1cc(COC(=O)NCCNc2c3c(nc4ccccc24)CCCC3)c(OCc2ccc(B3OC(C)(C)C(C)(C)O3)cc2)c(COC(=O)C(C)c2ccc(CC(C)C)cc2)c1 (stereo not given)
IC50 (Acetylcholinesterase): 608 nM
inhibition [4]: 28.2%
Activity (SH-SY5Y [32]): Non-Toxic
Activity (SH-SY5Y [19]): Toxic
viability at 20 µM (SH-SY5Y [23]): > 80%
viability at 5 µM (SH-SY5Y [28]): > 50%

COc1cc(/C=C/C(=O)O)ccc1O
Activity (SH-SY5Y [33]): Active
Activity (SH-SY5Y [34]): Active
Activity (SH-SY5Y [35]): Active

Cc1cc(COC(=O)CCCCCOc2ccc3ccc(=O)oc3c2)c(OCc2ccc(B3OC(C)(C)C(C)(C)O3)cc2)c(COC(=O)C(C)c2ccc(CC(C)C)cc2)c1 (stereo not given)
Drug uptake [36]: Active
Drug uptake [37]: Active

Cc1cc(COC(=O)NCCCNc2c3c(nc4ccccc24)CCCC3)c(OCc2ccc(B3OC(C)(C)C(C)(C)O3)cc2)c(COC(=O)C(C)c2ccc(CC(C)C)cc2)c1 (stereo not given)
IC50 (Acetylcholinesterase): 302 nM
inhibition [4]: 32.9%
Activity (SH-SY5Y [38]): Toxic
viability at 20 µM (SH-SY5Y [23]): > 80%
viability at 5 µM (SH-SY5Y [28]): > 50%

Cc1cc(COC(=O)NCCCCNc2c3c(nc4ccccc24)CCCC3)c(OCc2ccc(B3OC(C)(C)C(C)(C)O3)cc2)c(COC(=O)C(C)c2ccc(CC(C)C)cc2)c1 (stereo not given)
IC50 (Acetylcholinesterase): 80 nM
inhibition [4]: 46%
Activity (SH-SY5Y [32]): Non-Toxic
Activity (SH-SY5Y [19]): Toxic
viability at 5 µM (SH-SY5Y [28]): > 50%
